Source: patent EP0432974A1, “Cyclic renin inhibitors” (MERCK & CO. INC., priority 1989, dated 1991)
Square brackets hold non-standard residues; d marks the D form. Peptide text beside a SMILES is read from it. * marks the point of attachment. Sta = CC(C)C[C@H](N)[C@@H](O)CC(=O)O; Isovaleryl = CC(C)CC(=O)*

Legend:
human plasma renin = human plasma renin IC50 determination at pH 7.4; format: biochemical
Protocol: The following method was used for in vitro evaluation of the renin inhibitors of Formula I : The human plasma renin IC50 values for inhibitors of Formula I were determined at pH 7.4 following the procedure described in J. Boger, L.S. Payne, D.S. Perlow, N.S. Lohr, M. Poe, E.H. Blaine, E.H. Ulm, T.W. Schorn, B.I. Lamont, T.Y. Lin, M. Kawai, D.H. Rich and D.F. Veber, J. Med. Chem., 28,1779 (1985).

[1] = tested on: sodium-deficient Rhesus monkeys; assay: intravenous evaluation of renin inhibitors in conscious sodium-deficient Rhesus monkeys (blood pressure lowering); format: in vivo; conditions: i.v. bolus
Text: The following methods were used for in vivo evaluation of the renin inhibitors of Formula I : Intravenous evaluation of renin inhibitors in concious sodium-deficient Rhesus monkeys : Rhesus monkeys, male and female, weighing 2.6-4.5 Kg, were surgically prepared with chronic arterial and venous catheters and vascular access ports for direct monitoring of mean arterial pressure (MAP) and heart rate (HR). The animals were maintained on a low sodium diet (1.2 mmol Nalday) plus friut for a week, and administered LASIX (furosemide) at 2.5 mg/Kg, intramuscularly the evening prior to the experiment The animals had been trained to sit quietly in the chairs with water ad libium for the duration of the experiment. The inhibitors were administered by bolus injection using 0.5% acetic acid-5% dextrose in water as the vehicle (0.4 ml/Kg), and MAP and HR were measured. Blood samples were withdrawn at different time intervals beginning at the nadir of hypotensive response. PRAwas determined as described above. […] A projected ED50 dose for each inhibitor was calculated using the following furmula : ED50 (Test Inhibitor, umoles/Kg) = ED50 (SCRIP) X [ICso (Test Inhibitor)/ICso (SCRIP)], where the IC50 values were determined against human plasma renin. […] Percent inhibition of monkey PRA, changes in MAP and HR were calculated and plotted against time. […]

IC50 (human plasma renin): 3.7 nM
SMILES: CC(C)CC(=O)N[C@@H](Cc1c[nH]cn1)C(=O)N1CCC[C@H]1C(=O)N[C@@H](Cc1ccccc1)C(=O)N[C@@H](Cc1c[nH]cn1)C(=O)N[C@@H](CC(C)C)[C@@H](O)CC(=O)N[C@@H](CC(C)C)C(=O)N[C@@H](Cc1ccccc1)C(N)=O [SCRIP, Iva-His-Pro-Phe-His-Sta-Leu-Phe-NH2] (Isovaleryl-HPFH[Sta]LF-NH2)
ED50 (i.v. dose required to lower blood pressure by 50% of the maximal response) [1]: 0.039 µmol/kg
